Source: the NIST ThermoML archive (doi:10.1016/j.jct.2012.03.003)
Numbers after ± are expanded uncertainties.

Assay: xn = mol fraction of the nth substance listed
Conditions: Liquid, Vibrating tube method

COc1cc2c(cc1O)CC1c3c(cc(O)c(OC)c3-2)CCN1C (stereo not given) [boldine] + CCCO
Conditions | mass density [kg/m3]
343 K, 1000 kPa, x1 = 0.0018 | 765.31 ± 0.95
343 K, 2000 kPa, x1 = 0.0018 | 766.28 ± 0.94
343 K, 3000 kPa, x1 = 0.0018 | 767.25 ± 0.94
343 K, 4000 kPa, x1 = 0.0018 | 768.23 ± 0.94
343 K, 5000 kPa, x1 = 0.0018 | 769.21 ± 0.93
343 K, 6000 kPa, x1 = 0.0018 | 770.18 ± 0.94
343 K, 7000 kPa, x1 = 0.0018 | 771.15 ± 0.94
343 K, 8000 kPa, x1 = 0.0018 | 772.11 ± 0.94
343 K, 9000 kPa, x1 = 0.0018 | 773.07 ± 0.94
343 K, 10000 kPa, x1 = 0.0018 | 774.02 ± 0.94
343 K, 11000 kPa, x1 = 0.0018 | 774.96 ± 0.94
343 K, 12000 kPa, x1 = 0.0018 | 775.89 ± 0.95
343 K, 13000 kPa, x1 = 0.0018 | 776.81 ± 0.95
343 K, 14000 kPa, x1 = 0.0018 | 777.73 ± 0.95
343 K, 15000 kPa, x1 = 0.0018 | 778.63 ± 0.95
343 K, 16000 kPa, x1 = 0.0018 | 779.51 ± 0.95
343 K, 17000 kPa, x1 = 0.0018 | 780.4 ± 0.95
343 K, 18000 kPa, x1 = 0.0018 | 781.25 ± 0.95
343 K, 19000 kPa, x1 = 0.0018 | 782.1 ± 0.96
343 K, 20000 kPa, x1 = 0.0018 | 782.93 ± 0.96
343.01 K, 1000 kPa, x1 = 0.0077 | 775.45 ± 0.66
343.01 K, 1000 kPa, x1 = 0.0142 | 786.8 ± 0.63
343.01 K, 2000 kPa, x1 = 0.0077 | 776.42 ± 0.66
343.01 K, 2000 kPa, x1 = 0.0142 | 787.75 ± 0.64
343.01 K, 3000 kPa, x1 = 0.0077 | 777.38 ± 0.66
343.01 K, 3000 kPa, x1 = 0.0142 | 788.7 ± 0.64
343.01 K, 4000 kPa, x1 = 0.0077 | 778.34 ± 0.66
343.01 K, 4000 kPa, x1 = 0.0142 | 789.64 ± 0.64
343.01 K, 5000 kPa, x1 = 0.0077 | 779.31 ± 0.67
343.01 K, 5000 kPa, x1 = 0.0142 | 790.58 ± 0.65
343.01 K, 6000 kPa, x1 = 0.0077 | 780.26 ± 0.67
343.01 K, 6000 kPa, x1 = 0.0142 | 791.54 ± 0.65
343.01 K, 7000 kPa, x1 = 0.0077 | 781.23 ± 0.67
343.01 K, 7000 kPa, x1 = 0.0142 | 792.46 ± 0.65
343.01 K, 8000 kPa, x1 = 0.0077 | 782.18 ± 0.68
343.01 K, 8000 kPa, x1 = 0.0142 | 793.4 ± 0.66
343.01 K, 9000 kPa, x1 = 0.0077 | 783.12 ± 0.68
343.01 K, 9000 kPa, x1 = 0.0142 | 794.32 ± 0.66
343.01 K, 10000 kPa, x1 = 0.0077 | 784.05 ± 0.68
343.01 K, 10000 kPa, x1 = 0.0142 | 795.24 ± 0.66
343.01 K, 11000 kPa, x1 = 0.0077 | 784.98 ± 0.69
343.01 K, 11000 kPa, x1 = 0.0142 | 796.17 ± 0.66
343.01 K, 12000 kPa, x1 = 0.0077 | 785.91 ± 0.69
343.01 K, 12000 kPa, x1 = 0.0142 | 797.07 ± 0.67
343.01 K, 13000 kPa, x1 = 0.0077 | 786.82 ± 0.69
343.01 K, 13000 kPa, x1 = 0.0142 | 797.96 ± 0.67
343.01 K, 14000 kPa, x1 = 0.0077 | 787.72 ± 0.7
343.01 K, 14000 kPa, x1 = 0.0142 | 798.86 ± 0.67
343.01 K, 15000 kPa, x1 = 0.0077 | 788.61 ± 0.7
343.01 K, 15000 kPa, x1 = 0.0142 | 799.72 ± 0.68
343.01 K, 16000 kPa, x1 = 0.0077 | 789.48 ± 0.7
343.01 K, 16000 kPa, x1 = 0.0142 | 800.59 ± 0.68
343.01 K, 17000 kPa, x1 = 0.0077 | 790.35 ± 0.71
343.01 K, 17000 kPa, x1 = 0.0142 | 801.44 ± 0.68
343.01 K, 18000 kPa, x1 = 0.0077 | 791.2 ± 0.71
343.01 K, 18000 kPa, x1 = 0.0142 | 802.3 ± 0.69
343.01 K, 19000 kPa, x1 = 0.0077 | 792.04 ± 0.71
343.01 K, 19000 kPa, x1 = 0.0142 | 803.11 ± 0.69
343.01 K, 20000 kPa, x1 = 0.0077 | 792.86 ± 0.72
343.01 K, 20000 kPa, x1 = 0.0142 | 803.92 ± 0.69
343.02 K, 1000 kPa, x1 = 0.0112 | 782.08 ± 0.72
343.02 K, 2000 kPa, x1 = 0.0112 | 783.03 ± 0.72
343.02 K, 3000 kPa, x1 = 0.0112 | 783.98 ± 0.72
343.02 K, 4000 kPa, x1 = 0.0112 | 784.93 ± 0.73
343.02 K, 5000 kPa, x1 = 0.0112 | 785.88 ± 0.73
343.02 K, 6000 kPa, x1 = 0.0112 | 786.83 ± 0.73
343.02 K, 7000 kPa, x1 = 0.0112 | 787.77 ± 0.73
343.02 K, 8000 kPa, x1 = 0.0112 | 788.71 ± 0.73
343.02 K, 9000 kPa, x1 = 0.0112 | 789.64 ± 0.73
343.02 K, 10000 kPa, x1 = 0.0112 | 790.57 ± 0.74
343.02 K, 11000 kPa, x1 = 0.0112 | 791.49 ± 0.74
343.02 K, 12000 kPa, x1 = 0.0112 | 792.4 ± 0.74
343.02 K, 13000 kPa, x1 = 0.0112 | 793.29 ± 0.74
343.02 K, 14000 kPa, x1 = 0.0112 | 794.19 ± 0.75
343.02 K, 15000 kPa, x1 = 0.0112 | 795.06 ± 0.75
343.02 K, 16000 kPa, x1 = 0.0112 | 795.93 ± 0.75
343.02 K, 17000 kPa, x1 = 0.0112 | 796.79 ± 0.76
343.02 K, 18000 kPa, x1 = 0.0112 | 797.62 ± 0.76
343.02 K, 19000 kPa, x1 = 0.0112 | 798.46 ± 0.76
343.02 K, 20000 kPa, x1 = 0.0112 | 799.28 ± 0.76
343.04 K, 1000 kPa, x1 = 0.0046 | 771.67 ± 0.7
343.04 K, 2000 kPa, x1 = 0.0046 | 772.63 ± 0.7
343.04 K, 3000 kPa, x1 = 0.0046 | 773.6 ± 0.71
343.04 K, 4000 kPa, x1 = 0.0046 | 774.56 ± 0.71
343.04 K, 5000 kPa, x1 = 0.0046 | 775.44 ± 0.71
343.04 K, 6000 kPa, x1 = 0.0046 | 776.45 ± 0.71
343.04 K, 7000 kPa, x1 = 0.0046 | 777.41 ± 0.72
343.04 K, 8000 kPa, x1 = 0.0046 | 778.35 ± 0.72
343.04 K, 9000 kPa, x1 = 0.0046 | 779.29 ± 0.72
343.04 K, 10000 kPa, x1 = 0.0046 | 780.23 ± 0.72
343.04 K, 11000 kPa, x1 = 0.0046 | 781.16 ± 0.73
343.04 K, 12000 kPa, x1 = 0.0046 | 782.09 ± 0.73
343.04 K, 13000 kPa, x1 = 0.0046 | 782.98 ± 0.73
343.04 K, 14000 kPa, x1 = 0.0046 | 783.89 ± 0.74
343.04 K, 15000 kPa, x1 = 0.0046 | 784.78 ± 0.74
343.04 K, 16000 kPa, x1 = 0.0046 | 785.65 ± 0.74
343.04 K, 17000 kPa, x1 = 0.0046 | 786.52 ± 0.75
343.04 K, 18000 kPa, x1 = 0.0046 | 787.37 ± 0.75
343.04 K, 19000 kPa, x1 = 0.0046 | 788.26 ± 0.75
343.04 K, 20000 kPa, x1 = 0.0046 | 789.03 ± 0.76
352.94 K, 1000 kPa, x1 = 0.0018 | 756.19 ± 0.93
352.94 K, 1000 kPa, x1 = 0.0112 | 772.97 ± 0.72
352.94 K, 1000 kPa, x1 = 0.0142 | 777.66 ± 0.63
352.94 K, 2000 kPa, x1 = 0.0018 | 757.24 ± 0.92
352.94 K, 2000 kPa, x1 = 0.0112 | 774.02 ± 0.72
352.94 K, 2000 kPa, x1 = 0.0142 | 778.69 ± 0.64
352.94 K, 3000 kPa, x1 = 0.0018 | 758.3 ± 0.93
352.94 K, 3000 kPa, x1 = 0.0112 | 775.24 ± 0.72
352.94 K, 3000 kPa, x1 = 0.0142 | 779.72 ± 0.62
352.94 K, 4000 kPa, x1 = 0.0018 | 759.35 ± 0.93
352.94 K, 4000 kPa, x1 = 0.0112 | 776.07 ± 0.72
352.94 K, 4000 kPa, x1 = 0.0142 | 780.73 ± 0.64
352.94 K, 5000 kPa, x1 = 0.0018 | 760.39 ± 0.93
352.94 K, 5000 kPa, x1 = 0.0112 | 777.15 ± 0.72
352.94 K, 5000 kPa, x1 = 0.0142 | 781.74 ± 0.64
352.94 K, 6000 kPa, x1 = 0.0018 | 761.42 ± 0.93
352.94 K, 6000 kPa, x1 = 0.0112 | 778.1 ± 0.73
352.94 K, 6000 kPa, x1 = 0.0142 | 782.74 ± 0.65
352.94 K, 7000 kPa, x1 = 0.0018 | 762.46 ± 0.93
352.94 K, 7000 kPa, x1 = 0.0112 | 779.1 ± 0.73
352.94 K, 7000 kPa, x1 = 0.0142 | 783.74 ± 0.65
352.94 K, 8000 kPa, x1 = 0.0018 | 763.48 ± 0.93
352.94 K, 8000 kPa, x1 = 0.0112 | 780.11 ± 0.73
352.94 K, 8000 kPa, x1 = 0.0142 | 784.73 ± 0.65
352.94 K, 9000 kPa, x1 = 0.0018 | 764.5 ± 0.93
352.94 K, 9000 kPa, x1 = 0.0112 | 781.09 ± 0.73
352.94 K, 9000 kPa, x1 = 0.0142 | 785.73 ± 0.66
352.94 K, 10000 kPa, x1 = 0.0018 | 765.51 ± 0.93
352.94 K, 10000 kPa, x1 = 0.0112 | 782.07 ± 0.74
352.94 K, 10000 kPa, x1 = 0.0142 | 786.7 ± 0.66
352.94 K, 11000 kPa, x1 = 0.0018 | 766.51 ± 0.93
352.94 K, 11000 kPa, x1 = 0.0112 | 783.04 ± 0.74
352.94 K, 11000 kPa, x1 = 0.0142 | 787.66 ± 0.66
352.94 K, 12000 kPa, x1 = 0.0018 | 767.49 ± 0.94
352.94 K, 12000 kPa, x1 = 0.0112 | 784.02 ± 0.74
352.94 K, 12000 kPa, x1 = 0.0142 | 788.61 ± 0.67
352.94 K, 13000 kPa, x1 = 0.0018 | 768.45 ± 0.94
352.94 K, 13000 kPa, x1 = 0.0112 | 784.98 ± 0.74
352.94 K, 13000 kPa, x1 = 0.0142 | 789.57 ± 0.67
352.94 K, 14000 kPa, x1 = 0.0018 | 769.42 ± 0.94
352.94 K, 14000 kPa, x1 = 0.0112 | 785.8 ± 0.75
352.94 K, 14000 kPa, x1 = 0.0142 | 790.48 ± 0.68
352.94 K, 15000 kPa, x1 = 0.0018 | 770.37 ± 0.95
352.94 K, 15000 kPa, x1 = 0.0112 | 786.85 ± 0.75
352.94 K, 15000 kPa, x1 = 0.0142 | 791.41 ± 0.67
352.94 K, 16000 kPa, x1 = 0.0018 | 771.31 ± 0.95
352.94 K, 16000 kPa, x1 = 0.0112 | 787.79 ± 0.75
352.94 K, 16000 kPa, x1 = 0.0142 | 792.32 ± 0.67
352.94 K, 17000 kPa, x1 = 0.0018 | 772.22 ± 0.95
352.94 K, 17000 kPa, x1 = 0.0112 | 788.61 ± 0.76
